Reference: ChEMBL document CHEMBL4828703, “Structure-activity relationship study of THZ531 derivatives enables the discovery of BSJ-01-175 as a dual CDK12/13 covalent inhibitor with efficacy in Ewing sarcoma” (Eur J Med Chem, 2021)
Calls of active or inactive are those of the source. The rule behind the calls is not given here.

What was measured:
CDK2/Cyclin A2 = CDK2/Cyclin A2 (Homo sapiens, UniProt P24941); test: Inhibition of CDK2/Cyclin A (unknown origin); format: protein-complex assay
[1] = biological target: Cyclin-dependent kinase 7/ cyclin H (Homo sapiens, UniProt P50613); test: Inhibition of CDK7/Cyclin H (unknown origin); format: protein-complex assay
Cyclin-dependent kinase 7/ cyclin H, sequence (P51946 whole entry): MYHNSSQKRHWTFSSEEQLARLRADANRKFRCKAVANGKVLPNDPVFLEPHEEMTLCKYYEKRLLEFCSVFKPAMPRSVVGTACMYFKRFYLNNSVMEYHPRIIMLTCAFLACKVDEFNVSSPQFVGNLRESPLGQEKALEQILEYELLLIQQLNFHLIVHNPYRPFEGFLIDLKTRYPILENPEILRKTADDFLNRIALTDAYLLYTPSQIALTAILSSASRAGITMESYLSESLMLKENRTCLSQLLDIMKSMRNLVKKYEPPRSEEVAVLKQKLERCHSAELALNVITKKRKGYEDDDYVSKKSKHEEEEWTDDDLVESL
Cyclin-dependent kinase 7/ cyclin H, sequence (P50613 whole entry): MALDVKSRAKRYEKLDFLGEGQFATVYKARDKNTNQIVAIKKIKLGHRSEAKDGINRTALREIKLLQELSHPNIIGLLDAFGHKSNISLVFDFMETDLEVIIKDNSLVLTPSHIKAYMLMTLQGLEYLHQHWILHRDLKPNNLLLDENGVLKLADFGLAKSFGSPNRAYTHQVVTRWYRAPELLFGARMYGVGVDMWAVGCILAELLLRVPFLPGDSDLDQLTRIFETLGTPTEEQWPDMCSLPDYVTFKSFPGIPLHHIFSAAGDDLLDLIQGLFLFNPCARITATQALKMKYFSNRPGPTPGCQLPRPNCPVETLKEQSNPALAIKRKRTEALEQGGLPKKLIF

CDK9/cyclin T1 = CDK9/cyclin T1 (Homo sapiens, UniProt P50750); test: Inhibition of CDK9/Cyclin T1 (unknown origin); format: protein-complex assay
CDK9/cyclin T1, sequence (O60563 whole entry): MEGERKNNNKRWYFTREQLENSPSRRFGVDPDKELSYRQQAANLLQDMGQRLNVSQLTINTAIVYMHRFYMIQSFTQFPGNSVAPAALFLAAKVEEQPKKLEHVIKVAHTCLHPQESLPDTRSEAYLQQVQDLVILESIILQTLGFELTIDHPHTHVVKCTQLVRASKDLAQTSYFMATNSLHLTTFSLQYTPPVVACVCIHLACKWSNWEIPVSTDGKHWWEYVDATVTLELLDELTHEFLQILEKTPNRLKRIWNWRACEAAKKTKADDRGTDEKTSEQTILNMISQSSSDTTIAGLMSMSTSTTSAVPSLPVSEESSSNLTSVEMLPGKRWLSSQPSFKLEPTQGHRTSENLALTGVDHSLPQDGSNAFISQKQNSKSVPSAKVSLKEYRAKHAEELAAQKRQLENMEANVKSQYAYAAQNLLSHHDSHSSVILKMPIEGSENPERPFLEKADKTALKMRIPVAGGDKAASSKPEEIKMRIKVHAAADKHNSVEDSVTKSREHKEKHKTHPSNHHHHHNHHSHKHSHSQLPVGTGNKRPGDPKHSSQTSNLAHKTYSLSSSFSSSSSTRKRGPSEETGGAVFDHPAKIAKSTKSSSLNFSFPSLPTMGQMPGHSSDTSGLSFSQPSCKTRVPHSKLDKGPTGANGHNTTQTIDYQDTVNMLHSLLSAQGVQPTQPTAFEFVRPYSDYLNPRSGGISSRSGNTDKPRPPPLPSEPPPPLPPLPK
CDK9/cyclin T1, sequence (P50750 whole entry): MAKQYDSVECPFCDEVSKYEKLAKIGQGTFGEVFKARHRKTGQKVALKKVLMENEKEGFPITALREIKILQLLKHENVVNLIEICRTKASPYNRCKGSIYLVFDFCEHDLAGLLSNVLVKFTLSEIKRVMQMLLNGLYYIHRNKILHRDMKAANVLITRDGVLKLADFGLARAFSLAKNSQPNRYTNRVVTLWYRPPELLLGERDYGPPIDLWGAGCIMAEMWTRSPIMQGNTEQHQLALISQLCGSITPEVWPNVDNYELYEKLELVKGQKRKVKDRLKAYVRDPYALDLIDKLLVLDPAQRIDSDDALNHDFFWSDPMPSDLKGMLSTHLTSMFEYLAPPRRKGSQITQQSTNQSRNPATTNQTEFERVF

CDK12/Cyclin K = CDK12/Cyclin K (Homo sapiens, UniProt Q9NYV4); test: Inhibition of human recombinant CDK12/CyclinK assessed as reduction in substrate phosphorylation using His-c-Myc as substrate preincubated with enzyme for 5 mins followed by substrate addition for 15 mins in presence of [gamma 32P-ATP] by radioactive kinase assay; format: protein-complex assay
[2] = biological target: Cyclin-dependent kinase 13/Cyclin-K (Homo sapiens, UniProt Q14004); test: Inhibition of human recombinant CDK13/CyclinK assessed as reduction in substrate phosphorylation using His-c-Myc as substrate preincubated with enzyme for 5 mins followed by substrate addition for 15 mins in presence of [gamma 32P-ATP] by radioactive kinase assay; format: protein-complex assay
Cyclin-dependent kinase 13/Cyclin-K, sequence (Q14004 whole entry): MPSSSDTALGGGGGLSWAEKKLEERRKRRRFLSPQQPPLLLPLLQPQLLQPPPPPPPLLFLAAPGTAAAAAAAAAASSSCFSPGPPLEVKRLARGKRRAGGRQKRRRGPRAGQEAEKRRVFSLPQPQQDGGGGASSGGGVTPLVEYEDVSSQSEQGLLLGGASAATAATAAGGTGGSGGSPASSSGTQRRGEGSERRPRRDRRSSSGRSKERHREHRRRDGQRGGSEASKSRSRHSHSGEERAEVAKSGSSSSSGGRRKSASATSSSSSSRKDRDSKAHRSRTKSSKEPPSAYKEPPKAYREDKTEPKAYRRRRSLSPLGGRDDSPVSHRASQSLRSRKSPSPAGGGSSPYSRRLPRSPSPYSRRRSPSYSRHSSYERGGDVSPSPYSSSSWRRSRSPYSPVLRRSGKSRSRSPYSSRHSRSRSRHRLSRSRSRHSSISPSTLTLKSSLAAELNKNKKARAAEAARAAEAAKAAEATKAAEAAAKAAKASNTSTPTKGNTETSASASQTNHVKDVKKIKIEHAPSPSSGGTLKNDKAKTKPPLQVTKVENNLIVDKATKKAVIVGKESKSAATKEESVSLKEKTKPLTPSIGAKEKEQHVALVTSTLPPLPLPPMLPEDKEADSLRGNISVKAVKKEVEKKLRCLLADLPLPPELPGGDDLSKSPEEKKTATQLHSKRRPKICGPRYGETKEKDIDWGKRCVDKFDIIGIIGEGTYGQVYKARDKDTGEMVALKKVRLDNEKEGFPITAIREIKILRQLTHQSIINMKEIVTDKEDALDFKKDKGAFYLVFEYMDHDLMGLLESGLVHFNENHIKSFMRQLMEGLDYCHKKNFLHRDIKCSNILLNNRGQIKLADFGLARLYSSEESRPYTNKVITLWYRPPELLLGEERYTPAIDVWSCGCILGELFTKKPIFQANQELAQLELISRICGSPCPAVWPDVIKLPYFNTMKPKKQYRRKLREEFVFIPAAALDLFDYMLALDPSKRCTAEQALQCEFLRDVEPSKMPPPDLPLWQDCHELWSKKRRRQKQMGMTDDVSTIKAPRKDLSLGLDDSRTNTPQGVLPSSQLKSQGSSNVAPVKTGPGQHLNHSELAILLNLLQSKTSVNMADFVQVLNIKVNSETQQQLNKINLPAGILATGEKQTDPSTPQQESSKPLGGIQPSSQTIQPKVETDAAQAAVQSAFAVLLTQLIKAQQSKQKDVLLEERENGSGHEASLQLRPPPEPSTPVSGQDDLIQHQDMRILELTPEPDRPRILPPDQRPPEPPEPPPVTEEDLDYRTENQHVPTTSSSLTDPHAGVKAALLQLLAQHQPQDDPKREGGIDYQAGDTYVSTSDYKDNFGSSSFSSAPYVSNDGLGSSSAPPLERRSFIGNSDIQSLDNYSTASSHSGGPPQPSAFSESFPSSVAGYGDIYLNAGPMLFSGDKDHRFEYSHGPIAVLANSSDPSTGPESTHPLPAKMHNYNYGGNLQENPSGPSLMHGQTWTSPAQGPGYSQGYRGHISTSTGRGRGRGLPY
Cyclin-dependent kinase 13/Cyclin-K, sequence (O75909 whole entry, further chain): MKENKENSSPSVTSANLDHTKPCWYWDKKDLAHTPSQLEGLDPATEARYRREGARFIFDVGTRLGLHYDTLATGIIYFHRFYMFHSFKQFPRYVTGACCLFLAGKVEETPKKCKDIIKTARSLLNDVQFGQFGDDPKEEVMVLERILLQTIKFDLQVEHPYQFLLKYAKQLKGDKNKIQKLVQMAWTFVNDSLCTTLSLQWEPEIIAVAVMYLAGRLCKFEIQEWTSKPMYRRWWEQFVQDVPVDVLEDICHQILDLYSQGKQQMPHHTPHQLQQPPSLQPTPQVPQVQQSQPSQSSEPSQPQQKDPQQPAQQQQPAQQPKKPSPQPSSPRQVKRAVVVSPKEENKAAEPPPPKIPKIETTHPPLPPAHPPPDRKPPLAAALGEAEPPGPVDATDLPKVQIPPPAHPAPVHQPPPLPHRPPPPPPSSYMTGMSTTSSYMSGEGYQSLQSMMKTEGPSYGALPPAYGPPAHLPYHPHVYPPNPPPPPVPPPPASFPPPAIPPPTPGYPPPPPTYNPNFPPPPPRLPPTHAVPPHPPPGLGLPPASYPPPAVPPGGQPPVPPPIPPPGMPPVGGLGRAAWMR

[3] = Metabolic stability in mouse liver microsomes assessed as half life; format: ADME, Microsome
[4] = Antiproliferative activity against human TC71 cells assessed as reduction in cell viability; format: functional, cell-based; details: TC-71
[5] = biological target: Cyclin-dependent kinase 12/13 (Homo sapiens) (UniProt Q14004+Q9NYV4); test: Inhibition of CDK12/13 in human jurkat cells assessed as reduction in RNA polymerase 2 CTD phosphorylation at Ser2 residue at 1 uM measured after 6 hrs by immunoblotting analysis; format: cell-based
[6] = Antiproliferative activity against human Kelly cells harboring CDK12 C1039F mutant assessed as reduction in cell viability incubated for 72 hrs by CellTiter-Glo assay; format: functional, cell-based
[7] = biological target: Cyclin-dependent kinase 7 (Homo sapiens) (UniProt P50613); test: Inhibition of THZ1-biotin binding from CDK7 in human Jurkat cells at 1 uM incubated for 6 hrs by CyclinH antibody based competitive pull down assay; format: cell-based
Cyclin-dependent kinase 7 (Homo sapiens), sequence (P50613 whole entry): as the sequence (P50613 whole entry) above

[8] = Downregulation of RNA polymerase 2 CTD phosphorylation at Ser5 residue in human Jurkat cells at 1 uM incubated for 6 hrs by immunoblotting analysis; format: functional
[9] = Downregulation of RNA polymerase 2 CTD phosphorylation at Ser7 residue in human Jurkat cells at 1 uM incubated for 6 hrs by immunoblotting analysis; format: functional
[10] = Downregulation of RNA polymerase 2 in human Jurkat cells at 1 uM measured after 6 hrs by immunoblotting analysis; format: functional
[11] = Antiproliferative activity against human Kelly cells harboring wild type CDK12 assessed as reduction in cell viability incubated for 72 hrs by CelTiter-Glo assay; format: functional, cell-based

| Compound | IC50 (CDK2/Cyclin A2) | IC50 [1] | IC50 (CDK9/cyclin T1) | IC50 (CDK12/Cyclin K) | IC50 [2] | other results |
| --- | --- | --- | --- | --- | --- | --- |
| C=CC(=O)Nc1ccc(C(=O)N2CCC[C@@H](Nc3ncc(Cl)c(-c4c[nH]c5ccccc45)n3)C2)nc1 |  |  |  | 232 nM | 799 nM | t1/2 [3]: 3.5 min |
| CN(C)C/C=C/C(=O)Nc1ccc(O[C@H]2CCC[C@@H](Nc3ncc(Cl)c(-c4c[nH]c5ccccc45)n3)C2)cc1 | 650 nM | 112 nM | 132 nM | 181 nM | 182 nM |  |
| CN(C)C/C=C/C(=O)Nc1ccc(N2CCC[C@@H](Nc3ncc(Cl)c(-c4c[nH]c5ccccc45)n3)C2)nc1 |  |  |  | 35.4 nM | 186 nM |  |
| CN(C)C/C=C/C(=O)Nc1ccc(N2CCC[C@@H](Nc3ncc(Cl)c(-c4c[nH]c5ccccc45)n3)C2)cc1 | 623 nM | 69.5 nM | 155 nM | 167 nM | 178 nM |  |
| CN(C)C/C=C/C(=O)Nc1ccc(O[C@@H]2CCC[C@@H](Nc3ncc(Cl)c(-c4c[nH]c5ccccc45)n3)C2)c(F)c1 |  |  |  | 857 nM | 484 nM |  |
| Nc1ccc(OC2CCC[C@@H](Nc3ncc(Cl)c(-c4cn(S(=O)(=O)c5ccccc5)c5ccccc45)n3)C2)cc1 (stereo partly specified) |  |  |  |  |  | t1/2 [3]: 5.4 min |
| CN(C)C/C=C/C(=O)Nc1ccc(C(=O)N2CCC[C@@H](Nc3ncc(Cl)c(-c4c[nH]c5ccccc45)n3)C2)cc1 | 1300 nM |  | 193 nM | 483 nM | 657 nM | IC50 [4]: 65.9 nM; inhibition [5]: 76%; IC50 [6]: 254 nM; inhibition [7]: Active; inhibition at 1 µM [8]: 0%; inhibition at 1 µM [9]: 42%; inhibition at 1 µM [10]: 0%; IC50 [11]: 93 nM |

Further lines, with some results ahead:

| IC50 (CDK2/Cyclin A2) | IC50 [1] | IC50 (CDK9/cyclin T1) | IC50 (CDK12/Cyclin K) | IC50 [2] | Compound | other results |
| --- | --- | --- | --- | --- | --- | --- |
| 339 nM | 388 nM | 1220 nM | 1450 nM | 1830 nM | CN(C)C/C=C/C(=O)Nc1ccc(C(=O)N2CCCC[C@@H](Nc3ncc(Cl)c(-c4c[nH]c5ccccc45)n3)C2)cc1 |  |
|  |  |  | 765 nM | 1640 nM | CN(C)C/C=C/C(=O)Nc1ccc(C(=O)N2CCC[C@@H](Nc3ncc(Cl)c(-c4c[nH]c5ccccc45)n3)C2)nc1 |  |
| 10000 nM | > 10000 nM | > 10000 nM | > 10000 nM | 10000 nM | CN(C)C/C=C/C(=O)Nc1ccc(C(=O)N2CCC[C@@H](Nc3ncc(C(F)(F)F)c(-c4c[nH]c5ccccc45)n3)C2)cc1 |  |
| 49.3 nM |  | 14.2 nM | 68.7 nM | 50.2 nM | CN(C)C/C=C/C(=O)Nc1ccc(C(=O)N2CC[C@@H](Nc3ncc(Cl)c(-c4c[nH]c5ccccc45)n3)C2)cc1 |  |
| > 10000 nM | 625 nM | > 10000 nM | 9980 nM | > 10000 nM | CN(C)C/C=C/C(=O)Nc1ccc(C(=O)N2CCC[C@@H](Nc3ncc(C4CC4)c(-c4c[nH]c5ccccc45)n3)C2)cc1 |  |
| 1000 nM | 115 nM | 184 nM | 226 nM | 573 nM | CN(C)C/C=C/C(=O)Nc1ccc(C(=O)N2CCC[C@@H](Nc3ncc(Br)c(-c4c[nH]c5ccccc45)n3)C2)cc1 |  |
